Experimental data: patent US6482804B1, “Compositions and methods for delivery of genetic material” (Wyeth, priority 1997, dated 2002)

Assay: Scanning and transmission electron microscopy (SEM/TEM) of surfactant:DNA complexes
Assay type: physicochemical
Settings: aqueous formulations
Method: Scanning electron microscopy (SEM) and transmission electron microscopy (TEM) were employed to visualize the resulting complexes formed by the benzylammonium-containing surfactant and polynucleic acid compositions of this invention.
Each formulation containing 8.71% sucrose w/v and 5 mM phosphate buffer at pH6.7±0.5.
ii. […] However, upon addition of DNA, vesicular complexes are formed, when observed by SEM.
iii. […] Similar particle distribution was found at both concentrations of DNA, but in larger numbers with higher DNA concentrations. Larger particles in higher DNA concentrations appear to have derived from the fusion of several 50 nm particles. Formation of larger particles was dependent on the concentration of DNA in the formulation. These particles were visualized by shadow casting in SEM analysis using carbon, and were visible by short (10 second) exposure to the contrasting agent uranyl acetate in TEM analysis. The TEMs show membranous structures typical of liposomes described in literature.
As controls, SEM of DNA alone and benzalkonium chloride alone in aqueous solutions were performed. Vesicular structures are found only when aqueous solutions of DNA and benzalkonium chloride are mixed. TEMs show structures that are vesicular and some are multilamellar. Membranous structures found in these TEMs are consistent with the formation of lamellar vesicular complexes in liposomes.

benzalkonium chloride
structures seen by SEM/TEM: does not form vesicular complexes
